Measured values published in US11149022B2, “Antagonists of the muscarinic acetylcholine receptor M4” (Vanderbilt University, priority 2017, dated 2021).

Target: T1, Human M4 (Homo sapiens, UniProt P08173)
T1 construct: expressed in transfected cells; host or cells: CHO-K1 (ATCC), stably co-expressing chimeric G protein Gqi5
T1 sequence (P08173 1-479): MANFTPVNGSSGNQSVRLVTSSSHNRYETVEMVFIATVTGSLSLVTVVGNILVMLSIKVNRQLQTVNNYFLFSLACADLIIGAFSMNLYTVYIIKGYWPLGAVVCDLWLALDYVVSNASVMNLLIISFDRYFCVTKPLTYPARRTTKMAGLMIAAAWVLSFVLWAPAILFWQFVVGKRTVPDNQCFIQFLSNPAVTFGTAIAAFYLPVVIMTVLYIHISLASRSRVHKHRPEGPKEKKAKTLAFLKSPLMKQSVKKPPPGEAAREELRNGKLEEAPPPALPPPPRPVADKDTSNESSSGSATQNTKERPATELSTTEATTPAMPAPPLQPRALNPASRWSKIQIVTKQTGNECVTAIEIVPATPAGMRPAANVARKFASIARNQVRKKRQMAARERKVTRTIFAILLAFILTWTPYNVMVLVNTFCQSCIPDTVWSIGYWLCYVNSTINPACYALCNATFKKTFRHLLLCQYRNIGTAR
Assay: mAChR M4 cell-based functional assay (calcium flux, antagonist mode)
Conditions: for remaining activity at 30 µM: % ACh maximum at 30 μM, read-out: Emin; for IC50: M4/Gqi5/CHO-K1 cells, concentration-dependent decrease of the EC80 acetylcholine response
Protocol: Human or rat M4 cDNA, along with the chimeric G protein Gqi5, were transfected into Chinese hamster ovary (CHO-K1) cells purchased from the American Type Culture Collection using Lipofectamine2000. M4/Gqi5/CHO cells were grown in Ham's F-12 medium containing 10% heat-inactivated fetal bovine serum (FBS), 20 mM HEPES, 500 μg/mL G418 sulfate, and 200 μg/mL Hygromycin B.
For high throughput measurement of agonist-evoked increases in intracellular calcium, CHO-K1 cells stably expressing muscarinic receptors were plated in growth medium lacking G418 and hygromycin at 15,000 cells/20 μL/well in Greiner 384-well black-walled, tissue culture (TC)-treated, clear-bottom plates (VWR). Cells were incubated overnight at 37° C. and 5% CO2. The next day, cells were washed using an ELX 405 (BioTek) with assay buffer; the final volume was then aspirated to 20 μL, Next, 20 μL of a 2.3 μM stock of Fluo-4/acetoxymethyl ester (Invitrogen, Carlsbad, Calif.), prepared as a 2.3 μM stock in DMSO, mixed in a 1:1 ratio with 10% (w/v) Pluronic F-127 and diluted in assay buffer, was added to the wells and the cell plates were incubated for 50 min at 37° C. and 5% CO2. Dye was removed by washing with the ELX 405 and the final volume was aspirated to […]. Compound master plates were formatted in a 10 point concentration-response curve (CRC) format (1:3 dilutions) in 100% DMSO with a starting concentration of 10 or 1 mM using a BRAVO liquid handler (Agilent). Test compound CRCs were then transferred to daughter plates (240 nL) using the Echo acoustic plate reformatter (Labcyte, Sunnyvale, Calif.) and then diluted into assay buffer (40 μL) to a 2× stock using a Thermo Fisher Combi (Thermo Fisher Scientific, Waltham, Mass.).
Calcium flux was measured using the Functional Drug Screening System (FDSS) 6000 or 7000 (Hamamatsu Corporation, Tokyo, Japan) as an increase in the fluorescent static ratio. Compounds were applied to cells (20 μL, 2×) using the automated system of the FDSS at 2 seconds into the protocol and the data were collected at 1 Hz. At 143 s, 10 μL of an EC20 concentration of the muscarinic receptor agonist acetylcholine was added (5×), followed by the addition of 12 μL of an EC80 concentration of acetylcholine at the 268 s time point (5×). Agonist activity was analyzed as a concentration-dependent increase in calcium mobilization upon compound addition. Positive allosteric modulator activity was analyzed as a concentration-dependent increase in the EC20 acetylcholine response. Antagonist activity was analyzed as a concentration-dependent decrease in the EC80 acetylcholine response; for the purposes of the tables herein, an […] (inhibitory concentration 50) was calculated as a concentration-dependent decrease of the response elicited by an EC80 concentration of acetylcholine. Concentration-response curves were generated using a four-parameter logistical equation in XLFit curve fitting software (IDBS, Bridgewater, N.J.) for Excel (Microsoft, Redmond, Wash.) or Prism (GraphPad Software, Inc., San Diego, Calif.) or the Dotmatics software platform (Dotmatics, Bishop's Stortford, UK).
Compounds were synthesized as described above. Activity (IC50 and Emin) was determined in the mAChR M4 cell-based functional assay as described above and the data are shown in Table 4.

Row | Structure (SMILES) | remaining activity at 30 µM [%] | IC50 [µM]
1 | Cc1nn(C)cc1-c1ccc(NC2CC3(CCN(CCC(C)(C)C)CC3)C2)nn1 [Compound 1, 7-(3,3-Dimethylbutyl)-N-[6-(1,3-dimethylpyrazol-4-yl)pyridazin-3-yl]-7-azaspiro[3.5]nonan-2-amine] | 3.48 | –
2 | Cc1cnn(C)c1-c1ccc(NC2CC3(CCN(CCC(C)(C)C)CC3)C2)nn1 [Compound 2, 7-(3,3-Dimethylbutyl)-N-[6-(2,4-dimethylpyrazol-3-yl)pyridazin-3-yl]-7-azaspiro[3.5]nonan-2-amine] | 3.29 | 0.089
3 | Cc1nn(C)cc1-c1ccc(NC2CC3(CCN(CC4CC5C=CC4C5)CC3)C2)nn1 (stereo not drawn) [Compound 3, 7-(5-bicyclo[2.2.1]hept-2-enylmethyl)-N-[6-(1,3-dimethylpyrazol-4-yl)pyridazin-3-yl]-7-azaspiro[3.5]nonan-2-amine] | 3.12 | 0.01
4 | Cc1nn(C)cc1-c1ccc(NC2CC3(CCN(CC(C)C(C)(C)C)CC3)C2)nn1 (stereo not drawn) [Compound 4, N-[6-(1,3-dimethylpyrazol-4-yl)pyridazin-3-yl]-7-(2,3,3-trjmethylbutyl)-7-azaspiro[3.5]nonan-2-amine] | 4.05 | 1.02
5 | Cc1nn(C)cc1-c1ccc(NC2CC3(CCN(CC4CCOCC4)CC3)C2)nn1 [Compound 5, N-[6-(1,3-dimethylpyrazol-4-yl)pyridazin-3-yl]-7-(tetrahydropyran-4-ylmethyl)-7-azaspiro[3.5]nonan-2-amine] | 15.9 | > 10
6 | Cc1nn(C)cc1-c1ccc(NC2CC3(CCN(CC4CCSCC4)CC3)C2)nn1 [Compound 6] | 4.58 | 0.33
7 | Cc1cccnc1CN1CCC2(CC1)CC(Nc1ccc(-c3cn(C)nc3C)nn1)C2 [Compound 7, N-[6-(1,3-dimethyipyrazol-4-yl)pyridazin-3-yl]-7-[(3-methyl-2-pyridyl)methyl]-7-azaspiro[3.5]nonan-2-amine] | 9.14 | 1.74
8 | Cc1cnn(C)c1-c1ccc(NC2CC3(CCN(CC4CC5C=CC4C5)CC3)C2)nn1 (stereo not drawn) [Compound 8, 7-(5-bicyclo[2.2.1]hept-2-enylmethyl)-N-[6-(2,4-dimethylpyrazol-3-yl)pyridazin-3-yl]-7-azaspiro[3.5]nonan-2-amine] | 2.86 | 0.01
9 | Cc1cnn(C)c1-c1ccc(NC2CC3(CCN(CC(C)C(C)(C)C)CC3)C2)nn1 (stereo not drawn) [Compound 9, N-[6-(2,4-dimethylpyrazol-3-yl)pyridazin-3-yl]-7-(2,3,3-trimethylbutyl)-7-azaspiro[3.5]nonan-2-amine] | 3.11 | 0.22
10 | Cc1cnn(C)c1-c1ccc(NC2CC3(CCN(CC4CCOCC4)CC3)C2)nn1 [Compound 10, N-[6-(2,4-dimethylpyrazol-3-yl)pyridazin-3-yl]-7-(tetrahydropyran-4-ylmethyl)-7-azaspiro[3.5]nonan-2-amine] | 23.1 | > 10
11 | Cc1cnn(C)c1-c1ccc(NC2CC3(CCN(CC4CCSCC4)CC3)C2)nn1 [Compound 11, N-[6-(2,4-dimethylpyrazol-3-yl)pyridazin-3-yl]-7-(tetrahydrothiopyran-4-ylmethyl)-7-azaspiro[3.5]nonan-2-amine] | 3.95 | 0.21
12 | Cc1cccnc1CN1CCC2(CC1)CC(Nc1ccc(-c3c(C)cnn3C)nn1)C2 [Compound 12, N-[6-(2,4-dimethylpyrazol-3-yl)pyridazin-3-yl]-7-[(3-methyl-2-pyridyl)methyl]-7-azaspiro[3.5]nonan-2-amine] | 6.85 | 1.12
13 | Cc1nn(C)cc1-c1ccc(OC2CC3(CCN(CCC(C)(C)C)CC3)C2)nn1 [Compound 13, 7-(3,3-Dimethylbutyl)-2-[6-(1,3-dimethylpyrazol-4-yl)pyridazin-3-yl]oxy-7-azaspiro[3.5]nonane] | 2.85 | 0.2
14 | Cc1cnn(C)c1-c1ccc(OC2CC3(CCN(CCC(C)(C)C)CC3)C2)nn1 [Compound 14, 7-(3,3-Dimethylbutyl)-2-[6-(2,4-dimethylpyrazol-3-yl)pyridazin-3-yl]oxy-7-azaspiro[3.5]nonane] | 3.92 | 0.24
15 | CC(C)(C)CCN1CCC2(CC1)CC(Oc1ccc(-c3cc(F)ccc3Cl)nn1)C2 [Compound 15, 2-[6-(2-Chloro-5-fluoro-phenyl)pyridazin-3-yl]oxy-7-(3,3-dimethylbutyl)-7-azaspiro[3.5]nonane] | 3.01 | 0.33
16 | Fc1ccc(Cl)c(-c2ccc(OC3CC4(CCN(CC5CC6C=CC5C6)CC4)C3)nn2)c1 (stereo not drawn) [Compound 16, 7-(5-bicyclo[2.2.1]hept-2-enylmethyl)-2-[6-(2-chloro-5-fluoro-phenyl)pyridazin-3-yl]oxy-7-azaspiro[3.5]nonane] | 3.07 | 0.18
17 | CC(CN1CCC2(CC1)CC(Oc1ccc(-c3cc(F)ccc3Cl)nn1)C2)C(C)(C)C (stereo not drawn) [Compound 17, 2-[6-(2-chloro-5-fluoro-phenyl)pyridazin-3-yl]oxy-7-(2,3,3-trimethylbutyl)-7-azaspiro[3.5]nonane] | 2.73 | 0.59
18 | Fc1ccc(Cl)c(-c2ccc(OC3CC4(CCN(CC5CCCCC5)CC4)C3)nn2)c1 [Compound 18, 2-[6-(2-chloro-5-fluoro-phenyl)pyridazin-3-yl]oxy-7-(cyclohexylmethyl)-7-azaspiro[3.5]nonane] | 2.94 | 0.76
19 | Fc1ccc(Cl)c(-c2ccc(OC3CC4(CCN(CC5CCOCC5)CC4)C3)nn2)c1 [Compound 19, 2-[6-(2-chloro-5-fluoro-phenyl)pyridazin-3-yl]oxy-7-(tetrahydropyran-4-ylmethyl)-7-azaspiro[3.5]nonane] | 3.47 | 1.14
20 | Fc1ccc(Cl)c(-c2ccc(OC3CC4(CCN(CC5CCCOC5)CC4)C3)nn2)c1 (stereo not drawn) [Compound 20, 2-[6-(2-chloro-5-fluoro-phenyl)pyridazin-3-yl]oxy-7-(tetrahydropyran-3-ylmethyl)-7-azaspiro[3.5]nonane] | 5.55 | 1.77
21 | Fc1ccc(Cl)c(-c2ccc(OC3CC4(CCN(CC5CCSCC5)CC4)C3)nn2)c1 [Compound 21, 2-[6-(2-chloro-5-fluoro-phenyl)pyridazin-3-yl]oxy-7-(tetrahydrothiopyran-4-ylmethyl)-7-azaspiro[3.5]nonane] | 3.22 | 0.53
22 | Fc1ccc(Cl)c(-c2ccc(OC3CC4(CCN(Cc5ccccc5)CC4)C3)nn2)c1 [Compound 22, 7-benzyl-2-[6-(2-chloro-5-fluoro-phenyl)pyridazin-3-yl]oxy-7-azaspiro[3.5]nonane] | 3.34 | 1.27
23 | Cc1cccnc1CN1CCC2(CC1)CC(Oc1ccc(-c3cc(F)ccc3Cl)nn1)C2 [Compound 23, 2-[6-(2-chloro-5-fluoro-phenyl)pyridazin-3-yl]oxy-7-[(3-methyl-2-pyridyl)methyl]-7-azaspiro[3.5]nonane] | 3.36 | 0.9
